The target in series [1] is T1, recombinant soluble human CD73 (Homo sapiens, UniProt P21589, T376A).
T1 construct: mature human CD73 (residues 27-549) fused to 6×His-tag at the C-terminus; 6xHis (C); made in house; host or cells: Spodoptera frugiperda Sf9 insect cells (baculovirus, pAcGP67B vector)
T1 sequence (P21589 27-549 T376A): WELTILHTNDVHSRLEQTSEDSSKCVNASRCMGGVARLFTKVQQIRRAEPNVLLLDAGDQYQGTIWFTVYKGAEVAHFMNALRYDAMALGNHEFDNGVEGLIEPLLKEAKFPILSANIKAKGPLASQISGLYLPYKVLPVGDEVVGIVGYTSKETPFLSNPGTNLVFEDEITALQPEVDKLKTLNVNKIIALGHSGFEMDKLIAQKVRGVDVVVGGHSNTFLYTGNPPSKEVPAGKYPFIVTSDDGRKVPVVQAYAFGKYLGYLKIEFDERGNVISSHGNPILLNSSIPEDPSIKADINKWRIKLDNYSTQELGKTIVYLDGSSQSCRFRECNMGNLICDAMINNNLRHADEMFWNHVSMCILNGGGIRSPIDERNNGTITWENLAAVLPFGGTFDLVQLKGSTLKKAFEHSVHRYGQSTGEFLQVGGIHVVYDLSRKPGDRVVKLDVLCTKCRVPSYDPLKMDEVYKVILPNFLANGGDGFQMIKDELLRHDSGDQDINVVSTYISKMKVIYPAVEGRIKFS
Description: CD73 enzyme inhibition assay with [2,8-3H]AMP, soluble human CD73. Type of series: biochemical. Particulars: [2,8-3H]AMP (5 μM) as substrate; Ki from IC50 by Cheng-Prusoff; read-out: Human soluble CD73 Ki ± SEM. As for the experimental part:
Compound 2b, its precursor 1, and 20 were investigated for their CD73-inhibitory potency using tritium-labeled AMP as a substrate.^20 After incubation with CD73, non-hydrolyzed substrate and inorganic phosphate were precipitated using a solution of lanthanum chloride, and the precipitate was separated from the solution containing the reaction product [2,8-^3H]adenosine by filtration through GF/B glass fiber filters (WhatmanTM GE Healthcare, Chicago, IL, USA) using a cell harvester (M-48, Brandel, Gaitherburg, MD, USA). The filtrates (ca. 1.8 mL each) were transferred to scintillation vials, scintillation cocktail ULTIMA Gold XR (PerkinElmer, Waltham, MA, USA) was added (5 mL), and the radioactivity esd quantified by scintillation counting. CD73 preparations were (1) recombinant soluble human CD73,^13 (2) recombinant soluble rat CD73,^21 both expressed in Spodoptera frugiperda 9 (Sf) cells, (3) membrane preparations of MDA-MB-231 cells,^16 a human triple-negative breast cancer cell line with high expression of CD73,^18 and (4) membrane preparations of the 4T1.2 cell line, a mouse CD73-expressing breast cancer cell line.^22 The potency of the compounds was determined by measurements of full concentration-inhibition curves. K values were calcuated from the obtained IC50 values employing the Cheng-Prusoff equation.^23
Human soluble CD73 was expressed in Spodoptera frugiperda (Sf9) insect cells and purified as previously described.^16 The cDNA encoding for the mature human CD73 (residues 27-549) fused to 6×His-tag at the C-terminus (Genbank accession no. NM_002526) corresponding to the natural variant T376A (P21589/VAR_022091, UniProtKB/Swiss-Prot) was ligated into the pAcGP67B vector. For transfection, 1 μl of the recombinant vector (1000 ng/μl) mixed with 2.5 μl of baculovirus genomic DNA ProEasy™ (AB vector, CA, USA) was used to transfect Sf9 cells grown in Insect-XPRESS™ medium (#BE12-7300, Lonza, Switzerland) supplemented with 10 mg/l gentamicin. […]

Another series has as its system s.c. AsPC-1 xenografts. Description: In vivo PET imaging in AsPC-1 tumor bearing mice. The arrangement: species or system NSG mice. As for the experimental part:
Animal models. All animal experiments were performed in accordance with the legal requirements of the European Community (Directive 2010/63/EU) and the corresponding German Animal Welfare Law (TierSchG, TierSchVersV) and were approved by the local authorizing agency (State Office for Nature, Environment and Consumer Protection North Rhine-Westphalia). MDA-MB-231 or AsPC-1 cells were cultivated in RPMI supplemented with 10% fetal calf serum and 100 U/mL penicillin and 100 μg/mL streptomycin. 5×10^6 MDA-MB-231 or AsPC-1 cells were injected subcutaneously into the shoulder region of 10 to 12 week old NSG mice (NOD.Cg-Prkdcscidll2rgtm1Wjl/SzJ, Charles River Laboratories). […]
In vivo Imaging. […] Three-dimensional volumes of interest (VOIs) were defined over the respective organs in CT data sets, transferred to the coregistered PET data, and analyzed quantitatively. Regional uptake was calculated as a percentage of injected dose by dividing counts per milliliter in the VOI by total counts in the mouse multiplied by 100 (% ID/mL).
(§1) Ex vivo gamma counter measurements. […] Ex vivo biodistribution of radioactivity was analyzed by scintillation counting (Wizard2 gamma counter, Perkin-Elmer Life Science) and the radioactivity in respective organs decay-corrected and calculated as % ID per gram tissue (% ID/g).

For series [2], the system named is s.c. MDA-MB-231 xenografts. Description: In vivo PET imaging in MDA-MB-231 tumor bearing mice. The arrangement: species or system NSG mice. As for the experimental part:
Animal models. All animal experiments were performed in accordance with the legal requirements of the European Community (Directive 2010/63/EU) and the corresponding German Animal Welfare Law (TierSchG, TierSchVersV) and were approved by the local authorizing agency (State Office for Nature, Environment and Consumer Protection North Rhine-Westphalia). MDA-MB-231 or AsPC-1 cells were cultivated in RPMI supplemented with 10% fetal calf serum and 100 U/mL penicillin and 100 μg/mL streptomycin. 5×10^6 MDA-MB-231 or AsPC-1 cells were injected subcutaneously into the shoulder region of 10 to 12 week old NSG mice (NOD.Cg-Prkdcscidll2rgtm1Wjl/SzJ, Charles River Laboratories). Two tumors were inoculated per animal and growth was followed by digital caliper measurements (volume=½ (length*width^2)).
In vivo Imaging. Adult C57bl/6 (biodistribution study, 21±1 g) or tumor bearing NSG mice (24±3 g) were anesthetized by isoflurane/O2 and one lateral tail vein was cannulated using a 27 G needle connected to 15 cm polyethylene catheter tubing. ^18F-PSB-19427 (˜450 kBq/g body weight) were injected as a bolus (50 μL compound flushed with 50 μL saline) via the tail vein and subsequent PET scanning was performed. In the blocking studies, a subgroup of tumor-bearing mice was injected with ˜1000 fold excess of unlabeled PSB-19427 10 minutes prior to radiotracer injection. […] Three-dimensional volumes of interest (VOIs) were defined over the respective organs in CT data sets, transferred to the coregistered PET data, and analyzed quantitatively. Regional uptake was calculated as a percentage of injected dose by dividing counts per milliliter in the VOI by total counts in the mouse multiplied by 100 (% ID/mL).
as §1

Series [3] can be described thus: Determination of log D7.4 (1-octanol/PBS). Type of series: physicochemical. The procedure:
(§2) Determination of the log D7.4-value of [^18F]2. The lipophilicity of [^18F]2 was determined following the procedure described by Prante et al.^17 Triazole [^18F]2 (˜400 kBq) in PBS buffer (10 μL, pH 7.4) was added to PBS buffer (590 μL, pH 7.4) and octan-1-ol (600 μL). The two-layer mixture was shaken for 3 min on a vortex mixer at RT and centrifuged (3000 rpm) for 5 min. The main part of the octanol layer (400 μL) was collected carefully and added to a new tube with PBS buffer (400 μL, pH 7.4). The two-layer mixture was shaken again for 10 min and centrifuged for 5 min (3000 rpm). Three samples were prepared and two aliquots (á 100 μL) of both layers were measured in a g-counter 2480 Wizard2 (Perkin-Elmer, Waltham, USA). The partition coefficient was determined by dividing cpm(octanol) by cpm(PBS) and indicated as log D7.4 (exp.).
as §2, with “D7,4-value” for “D7.4-value”, “[^18F]PSB-19427.” for “[^18F]2.”, “[^18F]PSB-19427” for “[^18F]2”, “al.^28” for “al.^17”

The structures appear in SMILES notation.

One may read the Ki as a measure of affinity in units of concentration, obtained from inhibition or displacement. The term logD denotes lipophilicity at a set pH, counting ionised and neutral species. The low end stands for lower lipophilicity, the high end for higher lipophilicity.

Turning to `C#Cc1ccc(CN(CCC)c2nc(Cl)nc3c2ncn3[C@@H]2O[C@H](COP(=O)(O)CP(=O)(O)O)C(O)C2O)cc1` (stereo partly drawn) [Compound 1], in series [1], the inhibitory constant (Ki) came to 0.372 ± 0.03 nM.
For `CCCN(Cc1ccc(-c2cn(CC[18F])nn2)cc1)c1nc(Cl)nc2c1ncn2C1O[C@H](COP(=O)(O)CP(=O)(O)O)C(O)C1O` (stereo partly drawn) [[^18F]2, [^18F]-[((2R,3S,4R,5R)-5-{2-chloro-6-[(4-{1-[2-(fluoro)ethyl]-1H-1,2,3-triazol-4-yl}benzyl)(propyl)amino]-9H-purin-9-yl}-3,4-dihydroxytetrahydrofuran-2-yl)methoxy]methylenebisphosphonic acid], the “change of tumor-to-muscle ratios in blocking study” value in the series on s.c. AsPC-1 xenografts (AsPC-1, pretreating with PSB-12651 (7) 10 min before tracer injection) was “significant decrease of tumor-to-muscle ratios”; in series [2] (MDA-MB-231, pretreating with unlabeled compound 2 10 min before tracer injection), “significant decrease of tumor-to-muscle ratios”. Besides, the “accumulation of the tracer in the tumor xenografts as compared to muscle tissue” value is listed as “pronounced accumulation” in the series on s.c. AsPC-1 xenografts (PET 4 h p.i., i.v., AsPC-1 xenografts) and “pronounced accumulation” in series [2] (PET 4 h p.i., i.v., MDA-MB-231 xenografts). In addition, the “accumulation in the tumor as compared to FDG” value in series [2] (MDA-MB-231 tumors, 90 min and 4 h, especially in relation to muscle uptake) is recorded as “higher accumulation”. For the same compound, the “factor of increase of measured solubility in PBS-buffer (1-octanol/PBS) versus clog P” value worked out at 2.2 in series [3] (compared to clog P 0.22) and 3.9 in series [3] (compared to clog P 0.47). Besides, the logD in series [3] (octan-1-ol/PBS buffer, 1-octanol/PBS pH 7.4) was -0.12 ± 0.03.

(Values after patent US20250382322A1, “DIAGNOSTICS FOR DETECTING ECTO-5'-NUCLEOTIDASE (CD73)” (EBERHARD KARLS UNIVERSITÄT TÜBINGEN, priority 2022, published 2025).)
